From patent US7977365B2 (priority 2006, dated 2011)
Where two headings read alike, the source gives them in different places.

Assays:
[1] = tested on: Lassa GP-pseudotyped-virus; test: microbe, parasite or virus in culture; type: cell-based, Lassa fever virus; settings: for EC50: Human immunodeficiency virus 1, read-out: Activity against Lassa GP-pseudotyped-virus EC50
[2] = tested on: Lassa fever virus (Josiah strain); test: organism not typed; type: cell-based; settings: read-out: Activity vs. LFV EC50
LASV GP = test: organism not typed; type: cell-based; settings: HEK-293T
[3] = tested on: envelope of the New World arenavirus Guanarito; test: microbe, parasite or virus in culture; type: cell-based; settings: read-out: EC50, Guanarito envelope pseudotyped viral infection
[4] = tested on: envelope of the New World arenavirus Tacaribe; test: microbe, parasite or virus in culture; type: cell-based; settings: read-out: EC50, Tacaribe envelope pseudotyped viral infection
LCMV GP = test: organism not typed; type: cell-based; settings: HEK-293T, 72 h, read-out: IC50 ± SEM, LCMV (wt) GP pseudotype
Pichinde GP = test: organism not typed; type: cell-based; settings: HEK-293T, 72 h, read-out: IC50 ± SEM, Pichinde (wt) GP pseudotype
Junín GP = test: organism not typed; type: cell-based; settings: HEK-293T, 72 h, read-out: IC50 ± SEM, Junín GP pseudotype
Machupo GP = test: organism not typed; type: cell-based; settings: HEK-293T, 72 h, read-out: IC50 ± SEM, Machupo GP pseudotype
Tacaribe GP = test: organism not typed; type: cell-based; settings: HEK-293T, 72 h, read-out: IC50 ± SEM, Tacaribe GP pseudotype
Guanarito GP = test: organism not typed; type: cell-based; settings: HEK-293T, 72 h, read-out: IC50 ± SEM, Guanarito GP pseudotype
Sabia GP = test: organism not typed; type: cell-based; settings: HEK-293T, 72 h, read-out: IC50 ± SEM, Sabia GP pseudotype
VSVg = test: microbe, parasite or virus in culture; type: cell-based, vesicular stomatitis virus; settings: read-out: IC50 ± SEM, VSV envelope pseudotype
unselected TCRV = type: cell-based
[5] = at 50 μM
in vitro = settings: human

COc1ccc(CNc2ccc3c(c2)ncn3-c2ccc(OC)cc2)cc1 [Compound 600037, (4-methoxy-benzyl)-[1-(4-methoxy-phenyl)-1H-benzimidazol-5-yl]-amine]
specificity [1]: 900
EC50 [1]: 16 nM
EC50 [2]: < 100 nM
IC50 (LASV GP; read-out: average IC50 against LASV GP pseudotypes): 16 nM

COc1ccccc1-n1cnc2cc(NCc3ccc(N(C)C)cc3)ccc21 [Compound 600137, (4-dimethylamino-benzyl)-[1-(2-methoxy-phenyl)-1H-benzimidazol-5-yl]-amine]
EC50 [1]: > 12000 nM

CN(C)c1ccc(CNc2ccc3c(c2)ncn3-c2ccccc2)cc1 [Compound 600144, (4-dimethylamino-benzyl)-[1-phenyl-1H-benzimidazol-5-yl]-amine]
specificity [1]: >1
EC50 [1]: 11000 nM

COc1ccc(-n2cnc3cc(NCc4ccc(Br)cc4)ccc32)cc1 [Compound 600145, (4-bromo-benzyl)-[1-(4-methoxy-phenyl)-1H-benzimidazol-5-yl]-amine]
specificity [1]: 300
EC50 [1]: 40 nM

COc1ccc(-n2cnc3cc(NCc4ccccc4OC)ccc32)cc1 [Compound 600146, (2-methoxy-benzyl)-[1-(4-methoxy-phenyl)-1H-benzimidazol-5-yl]-amine]
specificity [1]: >40
EC50 [1]: 300 nM

CCOc1ccc(CNc2ccc3c(c2)ncn3-c2ccc(OC)cc2)cc1 [Compound 600147, (4-ethoxy-benzyl)-[1-(4-methoxy-phenyl)-1H-benzimidazol-5-yl]-amine]
specificity [1]: >4000
EC50 [1]: 3 nM

COc1ccc(-n2cnc3cc(NCc4cccc5ccccc45)ccc32)cc1 [Compound 600149, [1-(4-methoxy-phenyl)-1H-benzimidazol-5-yl]-napthalen-1-ylmethyl-amine]
specificity [1]: >200
EC50 [1]: 60 nM

COc1ccc(-n2cnc3cc(NCc4ccccc4O)ccc32)cc1 [Compound 600153, 2-[[1-(4-methoxy-phenyl)-1H-benzimidazol-5-ylamino]-methyl]-phenol]
specificity [1]: >60
EC50 [1]: 180 nM

COc1ccc(CNc2ccc3c(c2)ncn3-c2ccc(C)cc2)cc1 [Compound 600169, (4-methoxy-benzyl)-(1-p-tolyl-1H-benzimidazol-5-yl)-amine]
specificity [1]: >500
EC50 [1]: 20 nM

COc1ccc(-n2cnc3cc(NCc4ccc(Cl)cc4)ccc32)cc1 [Compound 600170, (4-chloro-benzyl)-[1-(4-methoxy-phenyl)-1H-benzimidazol-5-yl]-amine]
specificity [1]: >200
EC50 [1]: 40 nM

COc1ccc(-n2cnc3cc(NCc4ccc(OC)c(OC)c4)ccc32)cc1 [Compound 600172, (3,4-dimethoxy-benzyl)-[1-(4-methoxy-phenyl)-1H-benzimidazol-5-yl]-amine]
specificity [1]: >10
EC50 [1]: 700 nM

Brc1ccc(CNc2ccc3c(c2)ncn3-c2ccccc2)cc1 [Compound 600173, (4-bromo-benzyl)-(1-phenyl-1H-benzimidazol-5-yl)-amine]
specificity [1]: >30
EC50 [1]: 400 nM

CCOc1ccc(CN(c2ccc3c(c2)ncn3-c2ccccc2OC)S(=O)(=O)c2ccc(C)cc2)cc1 [Compound 600179, N-(4-ethoxy-benzyl)-N-[1-(2-methoxy-phenyl)-1H-benzimidazol-5-yl]-4-methylbenzenesulfonamide]
specificity [1]: >100
EC50 [1]: 110 nM

COc1ccc(-n2cnc3cc(NCc4ccc(C)cc4)ccc32)cc1 [Compound 600188, [1-(4-methoxy-phenyl)-1H-benzimidazol-5-yl]-(4-methyl-benzyl)-amine]
specificity [1]: >4000
EC50 [1]: 3 nM

COc1ccc(-n2cnc3cc(NCc4cccc(OC)c4OC)ccc32)cc1 [Compound 600189, (2,3-dimethoxy-benzyl)-[1-(4-methoxy-phenyl)-1H-benzimidazol-5-yl]-amine]
specificity [1]: 100
EC50 [1]: 100 nM

COc1ccc(CNc2ccc3c(c2)ncn3-c2ccccc2OC)cc1 [Compound 600190, (4-methoxy-benzyl)-[1-(2-methoxy-phenyl)-1H-benzimidazol-5-yl]-amine]
specificity [1]: 3
EC50 [1]: 2000 nM

COc1ccc(-n2cnc3cc(NCc4cccc(OC)c4)ccc32)cc1 [Compound 600191, (3-methoxy-benzyl)-[1-(4-methoxy-phenyl)-1H-benzimidazol-5-yl]-amine]
specificity [1]: >300
EC50 [1]: 40 nM

COc1ccccc1-n1cnc2cc(NCc3cccc(OC)c3OC)ccc21 [Compound 600192, (2,3-dimethoxy-benzyl)-[1-(2-methoxy-phenyl)-1H-benzimidazol-5-yl]-amine]
specificity [1]: none
EC50 [1]: 5000 nM

COc1ccc(-n2cnc3cc(NCc4ccc(C(C)C)cc4)ccc32)cc1 [Compound 600193, (4-isopropyl-benzyl)-[1-(4-methoxy-phenyl)-1H-benzimidazol-5-yl]-amine]
specificity [1]: 13,000
EC50 [1]: 1.1 nM
EC50 [2]: < 100 nM
EC50 [3]: < 1 nM
EC50 [4]: 4 nM
IC50 (LASV GP; 72 h, read-out: IC50 ± SEM, Lassa (LASV wt) GP pseudotype): 1.6 ± 0.3 nM
IC50 (LCMV GP): 31000 ± 4000 nM
IC50 (Pichinde GP): 2600 ± 500 nM
IC50 (Junín GP): 0.2 ± 0.03 nM
IC50 (Machupo GP): 2.3 ± 1.3 nM
IC50 (Tacaribe GP): 4 ± 2 nM
IC50 (Guanarito GP): 0.34 ± 0.07 nM
IC50 (Sabia GP): 12 ± 3 nM
IC50 (VSVg; Vesicular stomatitis virus, HEK-293T): ~30000 nM
IC50 (VSVg): 29000 ± 2500 nM
reduction of TCRV titer (unselected TCRV): 1000 fold
solubility observation [5]: visual evidence of insolubility
CC50 (in vitro): 48000 nM

COc1ccc(CNc2ccc3c(c2)ncn3-c2ccccc2)cc1 [Compound 600196, (4-methoxy-benzyl)-(1-phenyl-1H-benzimidazol-5-yl)-amine]
specificity [1]: >400
EC50 [1]: 30 nM

COc1ccc(-n2cnc3cc(N(Cc4ccc(C(C)C)cc4)C(C)=O)ccc32)cc1 [Compound 600362]
specificity [1]: 40
EC50 [1]: 400 nM

COc1ccc(-n2cnc3cc(N(Cc4ccc(C(C)C)cc4)S(=O)(=O)c4ccc(C)cc4)ccc32)cc1 [Compound 600363, N-(4-isopropyl-benzyl)-N-[1-(4-methoxy-phenyl)-1H-benzimidazol-5-yl]-4-methylbenzenesulfonamide]
specificity [1]: 100
EC50 [1]: 200 nM
